Molecules are shown by their SMILES. Where two headings read alike, the source gives them in different places.

Data set [1] in a line: Clinical DILI severity categorization and DILI pattern. The following applies: P = DILI severity categories 1, 2 and 3; N = categories 4 and 5.
The conditions of data set [2]: cited from earlier work; for P/N (DILI positive / DILI negative): P = DILI severity categories 1, 2 and 3, N = categories 4 and 5; for DILI category: clinical, from literature and product labels.
For data set [3] the following is noted: ref Chen et al 2016 / Chen et al 2011; cited from earlier work.
For data set [4] the following is noted: cited from earlier work.
Data set [5] deals with primary human hepatocytes (PHH). As to the kind of experiment: Cytotoxicity (cellular ATP, CellTiter-Glo) in 2D plated primary human hepatocytes, 48 h treatment.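 Also: 384-well plates, luminescence read-out, normalized to vehicle wells with 1% DMSO.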 It counts as cell-based. The note with it: Hepatocyte, read-out: Geomean IC50.
Protocol: Cryopreserved PHH (lot IZT) were thawed in InVitroGro HT™ thawing media at 37 °C, pelleted, and resuspended. Viable hepatocytes were counted by Trypan blue exclusion and plated in black-walled, BioCoat™ collagen 384-well plates at 13,000 cells/well in InVitroGro CP™ plating media supplemented with 1% Torpedo™ Antibiotic Mix and 5% fetal bovine serum and incubated overnight for 18 h. Cells were then treated with compounds for 48 h diluted in InVitroGro HI™ incubation media containing 1% Torpedo Antibiotic Mix, 10% fetal bovine serum, and 1% DMSO. […] Luminescence was determined on an EnVision™ Muliplate Reader (PerkinElmer, Waltham, MA, USA), and data were normalized to vehicle (1% DMSO) control wells.
In data set [6] the test system is 3D human liver microtissues (hLiMT). As to the kind of experiment: Cytotoxicity (cellular ATP, CellTiter-Glo 2.0) in 3D human liver microtissues, 14 day repeat-dose treatment. The following applies: for IC50: Homo sapiens, Hepatocyte, 336 h, read-out: Geomean IC50 [µM].
Data set [7] has the same test system. As to the kind of experiment: Cytotoxicity (cellular ATP) in 3D human liver microtissues, 5-6 days treatment.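 Also: Hanging-drop spheroids, seven-point dilution series, re-dosed on day 3, CellTiter-Glo 2.0 luminescence, normalized to 0.5 or 1% DMSO vehicle controls on the same plate.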 The data set is classed as cell-based. The following applies: Homo sapiens; hLiMT, 5/6 days, ATP content; read-out: IC50 SHORT.
[8] abbreviates: Table 1, ref Garside et al. (2014).
The mark [9] stands for this setting: clinical DILI severity category, 1-5.
Where [10] appears, read: human Cmax total, used for IC50/Cmax.
[11] abbreviates: human total plasma Cmax, ref literature values.
[12] abbreviates: 2D primary human hepatocytes (lot IZT), 48 h treatment, total cellular ATP content.
[13] abbreviates: table S-5, ref Garside et al. 2014.

For the molecule `Cc1c(-c2ccccc2)oc2c(C(=O)OCCN3CCCCC3)cccc2c1=O` [Flavoxate], the “P/N (DILI positive / DILI negative)” value in data set [1] and in data set [2] was “N” each time. For the same molecule, the DILI severity category in data set [2] (setting [8]) is 5: No DILI (N = 25); in data set [2] (setting [9]) it was 5. No DILI. Also, the DILI category in data set [2] (ref Garside et al. 2014) is given as 5. No DILI. Moreover, in data set [3], the “FDA DILI Classification DILI severity score” value was 0. Further, the “LTKB DILI classification” value in data set [3] is given as “no DILI concern”. In addition, the Cmax in data set [4] (setting [10]) and in data set [4] (setting [11]) was 1790 nM throughout. Further, the IC50 in data set [5] (setting [12]) and in data set [6] was above 10 µM in each case.
Regarding `CCN(CC)C(=O)/C(C#N)=C/c1cc(O)c(O)c([N+](=O)[O-])c1` [Entacapone], the “P/N (DILI positive / DILI negative)” value in data set [1] and in data set [2] was “N” in each case. Besides, the DILI severity category in data set [2] (setting [8]) is 4: Enzyme elevations in clinic (N = 16); in data set [2] (setting [9]) it was 4. Enzyme Elevations in Clinic. Besides, in data set [2] (ref Garside et al. 2014), the DILI category is 4. Enzyme Elevations in Clinic. In addition, in data set [3], the “FDA DILI Classification DILI severity score” value is reported as 0. Also, in data set [3], the “LTKB DILI classification” value is “less DILI concern”. Besides, the highest concentration (Cmax) in data set [4] (setting [10]) and in data set [4] (setting [11]) was 3280 nM each time. Moreover, the IC50 in data set [5] (setting [12]) was 100 µM; in data set [6], 152 µM.
On to `O=C1CC2(CCCC2)CC(=O)N1CCCCN1CCN(c2ncccn2)CC1` [Buspirone], for which the “P/N (DILI positive / DILI negative)” value in data set [1] and in data set [2] was “N” throughout. Further, the DILI severity category in data set [2] (setting [8]) is listed as 4: Enzyme elevations in clinic (N = 16); in data set [2] (setting [9]), 4. Enzyme Elevations in Clinic. In addition, the DILI category in data set [2] (ref Garside et al. 2014) is listed as 4. Enzyme Elevations in Clinic. Besides, the Cmax in data set [4] (setting [10]) and in data set [4] (setting [11]) was 10 nM each time. In addition, the IC50 in data set [5] (setting [12]) is above 200 µM; in data set [6] it was 163 µM. In addition, in data set [6] (hLiMT 14 days), the “classification at 50× MOS threshold” value is on record as “not”.
As to `CC(C)[N+](C)(CCOC(=O)C1c2ccccc2Oc2ccccc21)C(C)C` [Propantheline], the “P/N (DILI positive / DILI negative)” value in data set [1] and in data set [2] was “N” each time. The DILI severity category in data set [2] (setting [8]) is recorded as 5: No DILI (N = 25); in data set [2] (setting [9]) it was 5. No DILI. Moreover, the DILI category in data set [2] (ref Garside et al. 2014) is on record as 5. No DILI. Moreover, the “FDA DILI Classification DILI severity score” value in data set [3] was 0. Besides, in data set [3], the “LTKB DILI classification” value is reported as “no DILI concern”. Also, the Cmax in data set [4] (setting [10]) and in data set [4] (setting [11]) was 440 nM throughout. Moreover, the IC50 in data set [5] (setting [12]) and in data set [6] was above 50 µM in each case.
On to `CC(C)(C)NCC(O)c1ccc(O)c(CO)c1` (stereo not shown) [Albuterol], for which the “P/N (DILI positive / DILI negative)” value in data set [1] and in data set [2] was “N” each time. For the same molecule, the DILI severity category is on record as 5: No DILI (N = 25) in data set [2] (setting [8]) and 5. No DILI in data set [2] (setting [9]). Moreover, the DILI category in data set [2] (ref Garside et al. 2014) is on record as 5. No DILI. The “LTKB DILI classification” value in data set [3] is given as “no DILI concern”. For the same molecule, the Cmax in data set [4] (setting [10]) and in data set [4] (setting [11]) was 80 nM throughout.
For `CN(C)C(=O)Oc1cccc([N+](C)(C)C)c1` [Neostigmine], the “P/N (DILI positive / DILI negative)” value in data set [1] and in data set [2] was “N” in each case. Moreover, the DILI severity category was 5: No DILI (N = 25) in data set [2] (setting [8]) and 5. No DILI in data set [2] (setting [9]). For the same molecule, the DILI category in data set [2] (ref Garside et al. 2014) is listed as 5. No DILI. The Cmax in data set [4] (setting [10]) is 45 nM; in data set [4] (setting [11]), 44.8 nM. For the same molecule, the IC50 in data set [5] (setting [12]) and in data set [6] was above 10 µM throughout.
In the case of `[H]/N=C(/N)c1ccc(NCc2nc3cc(C(=O)N(CCC(=O)O)c4ccccn4)ccc3n2C)cc1` [Dabigatran], the “P/N (DILI positive / DILI negative)” value in data set [1] and in data set [2] was “N” throughout. Besides, the DILI severity category in data set [2] (setting [8]) is listed as 4: Enzyme elevations in clinic (N = 16); in data set [2] (setting [9]) it was 4. Enzyme Elevations in Clinic. Further, the DILI category in data set [2] (ref Garside et al. 2014) is given as 4. Enzyme Elevations in Clinic. The Cmax in data set [4] (setting [10]) and in data set [4] (setting [11]) was 370 nM each time. The IC50 in data set [5] (Homo sapiens, 48 h) is above 25 µM; in data set [6], above 50 µM.
On to `Cc1cc(CC(=O)O)n(C)c1C(=O)c1ccc(Cl)cc1` [Zomepirac], for which the “P/N (DILI positive / DILI negative)” value in data set [1] and in data set [2] was “N” in each case. Further, the DILI severity category in data set [2] (setting [8]) is reported as 5: No DILI (N = 25); in data set [2] (setting [9]) it was 5. No DILI. Further, the DILI category in data set [2] (ref Garside et al. 2014) is reported as 5. No DILI. The Cmax in data set [4] (setting [10]) and in data set [4] (setting [11]) was 13700 nM in each case. The IC50 in data set [5] (setting [12]) and in data set [6] was above 1000 µM in each case.
Take `NC(CO)C(=O)NNCc1ccc(O)c(O)c1O` (stereo not shown) [Benserazide]: the “P/N (DILI positive / DILI negative)” value in data set [1] and in data set [2] was “N” in each case. For the same molecule, the DILI severity category in data set [2] (setting [8]) was 5: No DILI (N = 25); in data set [2] (setting [9]), 5. No DILI. For the same molecule, in data set [2] (ref Garside et al. 2014), the DILI category is on record as 5. No DILI. Also, the Cmax in data set [4] (setting [10]) and in data set [4] (setting [11]) was 3890 nM each time. Moreover, the IC50 in data set [5] (setting [12]) is above 500 µM; in data set [6] it was above 62.5 µM.
On to `Cc1ccccc1C(OCCN(C)C)c1ccccc1` (stereo not shown) [Orphenadrine], for which the “P/N (DILI positive / DILI negative)” value in data set [1] and in data set [2] was “N” each time. In addition, the DILI severity category was 5: No DILI (N = 25) in data set [2] (setting [8]), 5. No DILI in data set [2] (setting [9]) and 5. No DILI in data set [2] (setting [13]). Also, the DILI category in data set [2] (ref Garside et al. 2014) is recorded as 5. No DILI. For the same molecule, the “FDA DILI Classification DILI severity score” value in data set [3] is given as 0. For the same molecule, the “LTKB DILI classification” value in data set [3] was “no DILI concern”. Besides, the Cmax in data set [4] (setting [10]) and in data set [4] (setting [11]) was 740 nM in each case.
With `C#CCN(C)Cc1ccccc1` [Pargyline], the “P/N (DILI positive / DILI negative)” value in data set [1] and in data set [2] was “N” throughout. In addition, the DILI severity category in data set [2] (setting [8]) is reported as 4: Enzyme elevations in clinic (N = 16); in data set [2] (setting [9]), 4. Enzyme Elevations in Clinic; in data set [2] (setting [13]), 4. Enzyme Elevations in Clinic. In data set [2] (ref Garside et al. 2014), the DILI category was 4. Enzyme Elevations in Clinic. Moreover, the Cmax in data set [4] (setting [10]) and in data set [4] (setting [11]) was 1000 nM each time. Further, the IC50 in data set [5] (setting [12]) and in data set [6] was above 100 µM throughout.
With `CN[C@@H]1[C@H](O)[C@H](NC)[C@H]2O[C@@]3(O)C(=O)C[C@@H](C)O[C@H]3O[C@@H]2[C@H]1O` [Spectinomycin], the DILI severity category is given as 3: Low clinical DILI concern (N = 23) in data set [2] (setting [8]); 3. Low Clinical DILI Concern in data set [2] (setting [9]); 3 in data set [2] (table S-4, ref Garside et al. 2014). In data set [2] (ref Garside et al. 2014), the DILI category was 3. Low Clinical DILI Concern. Further, the “FDA DILI Classification DILI severity score” value in data set [3] is listed as 3. The “LTKB DILI classification” value in data set [3] is given as “Ambiguous DILI concern”. In addition, the Cmax in data set [4] (setting [10]) and in data set [4] (setting [11]) was 323000 nM in each case. Also, the IC50 in data set [7] is 100 µM; in data set [5] (setting [12]), above 100 µM; in data set [6], above 100 µM.
As for `O=C(NC1CCN(CCc2c[nH]c3ccccc23)CC1)c1ccccc1` [Indoramin], the “P/N (DILI positive / DILI negative)” value in data set [1] and in data set [2] was “N” throughout. For the same molecule, the DILI severity category in data set [2] (setting [8]) was 5: No DILI (N = 25); in data set [2] (setting [9]), 5. No DILI. In addition, the DILI category in data set [2] (ref Garside et al. 2014) is 5. No DILI. Moreover, the Cmax in data set [4] (setting [10]) and in data set [4] (setting [11]) was 290 nM in each case. Also, the IC50 in data set [5] (setting [12]) and in data set [6] was above 50 µM each time.

The record behind these values is PMC5515971, “Utility of spherical human liver microtissues for prediction of clinical drug-induced liver injury” (Archives of Toxicology, 2017).
